This is an account of results in US12338243B2, “P2X7 modulators” (JANSSEN PHARMACEUTICA NV, priority 2014, dated 2025).

In experiment [1] the target is T1, rat P2X7 (Rattus norvegicus, UniProt Q64663).
T1 sequence (Q64663 1-595): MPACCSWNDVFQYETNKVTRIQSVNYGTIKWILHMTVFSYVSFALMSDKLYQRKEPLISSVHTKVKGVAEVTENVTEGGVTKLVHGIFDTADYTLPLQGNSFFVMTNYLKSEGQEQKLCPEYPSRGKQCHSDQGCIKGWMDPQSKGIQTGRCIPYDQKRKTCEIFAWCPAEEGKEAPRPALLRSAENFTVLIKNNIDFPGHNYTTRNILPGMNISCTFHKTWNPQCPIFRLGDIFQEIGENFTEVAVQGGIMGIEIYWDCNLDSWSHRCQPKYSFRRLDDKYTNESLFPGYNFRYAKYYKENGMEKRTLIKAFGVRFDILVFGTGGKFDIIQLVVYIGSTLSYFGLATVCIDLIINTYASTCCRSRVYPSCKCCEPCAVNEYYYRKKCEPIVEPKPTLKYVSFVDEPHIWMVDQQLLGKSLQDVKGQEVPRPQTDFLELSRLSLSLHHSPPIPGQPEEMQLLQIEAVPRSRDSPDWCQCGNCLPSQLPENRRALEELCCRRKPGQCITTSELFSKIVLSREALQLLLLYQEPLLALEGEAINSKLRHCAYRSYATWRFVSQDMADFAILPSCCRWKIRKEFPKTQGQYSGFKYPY
The experiment can be described thus: Ca2+ flux (FLIPR) in 1321N1 cells expressing recombinant rat P2X7 channel. Conditions: FLIPR (rat) IC50 (μM), 250 μM BzATP. (A change in cytosolic calcium serves as a functional read-out for many receptors and channels.)

Experiment [2] has as its target T2, P2X7 (Homo sapiens, UniProt Q99572).
T2 sequence (Q99572 1-595): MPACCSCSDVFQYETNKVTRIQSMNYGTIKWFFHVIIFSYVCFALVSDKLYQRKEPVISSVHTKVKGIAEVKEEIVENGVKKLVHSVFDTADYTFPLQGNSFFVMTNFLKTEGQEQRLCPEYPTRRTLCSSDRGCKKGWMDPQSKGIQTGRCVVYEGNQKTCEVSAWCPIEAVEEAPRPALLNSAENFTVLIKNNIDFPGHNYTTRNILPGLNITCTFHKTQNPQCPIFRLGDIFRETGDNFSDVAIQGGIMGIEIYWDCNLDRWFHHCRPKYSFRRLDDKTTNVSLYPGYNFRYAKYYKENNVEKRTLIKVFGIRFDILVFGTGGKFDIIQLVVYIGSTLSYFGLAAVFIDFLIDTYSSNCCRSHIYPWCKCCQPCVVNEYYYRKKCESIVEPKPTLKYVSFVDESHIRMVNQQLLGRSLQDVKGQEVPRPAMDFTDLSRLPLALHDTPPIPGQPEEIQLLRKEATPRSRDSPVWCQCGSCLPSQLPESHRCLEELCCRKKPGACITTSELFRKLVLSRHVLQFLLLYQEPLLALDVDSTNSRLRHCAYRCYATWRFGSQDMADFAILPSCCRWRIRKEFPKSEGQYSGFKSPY
Description: Ca2+ flux (FLIPR) in 1321N1 cells expressing recombinant human P2X7 channel. It is filed as cell-based. Conditions: 250 μM BzATP. The arrangement: expressed in transfected cells; host or cells: 1321N1 cells. On the procedure:
P2X7 Antagonism in Recombinant Human P2X7 Cells or Recombinant Rat P2X7 Cells: (a) Ca^2+ Flux and (b) Radioligand Binding
(a) Ca^2+ flux: 1321N1 cells expressing the recombinant human or rat P2X7 channel was cultured in HyQ DME/(HyClone/Dulbecco's Modified Eagle Medium) high glucose supplemented with 10% Fetal Bovine Serum (FBS) and appropriate selection marker. Cells were seeded at a density of 25000 cells/well (96-well clear bottom black walled plates) in 100 μl volume/well. On the day of the experiment, cell plates were washed with assay buffer, containing (in mM): 130 NaCl, 2 KCl, 1 CaCl2), 1 MgCl2, 10 HEPES, 5 glucose; pH 7.40 and 300 mOs. After the wash, cells were loaded with the Calcium-4 dye (Molecular Device) and incubated in the dark for 60 minutes. Test compounds were prepared at 250× the test concentration in neat DMSO. Intermediate 96-well compound plates were prepared by transferring 1.2 μL of the compound into 300 μL of assay buffer. A further 3× dilution occurred when transferring 50 μL/well of the compound plate to 100 μL/well in the cell plate. Cells were incubated with test compounds and dye for 30 minutes. […] The fluorescence change was measured 180 seconds after adding the agonist.

As to `CC1c2nnc(C3CCCCC3)n2CCN1C(=O)c1cccc(C(F)(F)F)c1Cl` (stereo not shown) [Example 61, (2-chloro-3-(trifluoromethyl)phenyl)(3-cyclohexyl-8-methyl-5,6-dihydro-[1,2,4]triazolo[4,3-a]pyrazin-7(8H)-yl)methanone], the IC50 (commonly the concentration that inhibits the measured activity by half) is more than 10 µM in experiment [1] and 340 nM in experiment [2].

`CC1c2nnc(C3CC3)n2CCN1C(=O)c1cccc(C(F)(F)F)c1Cl` (stereo not shown) [Example 65, (2-chloro-3-(trifluoromethyl)phenyl)(3-cyclopropyl-8-methyl-5,6-dihydro-[1,2,4]triazolo[4,3-a]pyrazin-7(8H)-yl)methanone]: the figures for the IC50 in experiment [1] and in experiment [2] were more than 10 µM and more than 10000 nM, respectively.

`COc1ccc(-c2nnc3n2C[C@H](C)N(C(=O)c2cccc(C(F)(F)F)c2Cl)C3)nc1` [Example 71]: the half-maximal inhibitory concentration (IC50) in experiment [1] is more than 10 µM; in experiment [2], 1220 nM.

Take `O=C(c1cccc(C(F)(F)F)c1Cl)N1CCn2c(C3CC3)nnc2[C@H]1c1ccccc1` [Example 77, (R)-(2-chloro-3-(trifluoromethyl)phenyl)(3-cyclopropyl-8-phenyl-5,6-dihydro-[1,2,4]triazolo[4,3-a]pyrazin-7(8H)-yl)methanone]: the half-maximal inhibitory concentration (IC50) was found to be 1.11 µM in experiment [1] and 589 nM in experiment [2].

On to `COc1cnc(-c2nnc3n2C[C@H](C)N(C(=O)c2cccc(C(F)(F)F)c2Cl)C3)nc1` [Example 78, (S)-(2-chloro-3-(trifluoromethyl)phenyl)(3-(5-methoxypyrimidin-2-yl)-6-methyl-5,6-dihydro-[1,2,4]triazolo[4,3-a]pyrazin-7(8H)-yl)methanone], for which the IC50 in experiment [1] was found to be 6.61 µM; in experiment [2], 14.3 nM.

With `CC(C)(C)c1nnc2n1CCN(C(=O)c1cccc(C(F)(F)F)c1Cl)[C@H]2c1ccccc1` [Example 82, (S)-(3-(tert-butyl)-8-phenyl-5,6-dihydro-[1,2,4]triazolo[4,3-a]pyrazin-7(8H)-yl)(2-chloro-3-(trifluoromethyl)phenyl)methanone], the figures for the half-inhibitory concentration (IC50) in experiment [1] and in experiment [2] were 1.85 µM and 959 nM, respectively.

With `O=C(c1cccc(C(F)(F)F)c1Cl)N1CCn2c(-c3ccco3)nnc2[C@H]1c1ccccc1` [Example 83, (R)-(2-chloro-3-(trifluoromethyl)phenyl)(3-(furan-2-yl)-8-phenyl-5,6-dihydro-[1,2,4]triazolo[4,3-a]pyrazin-7(8H)-yl)methanone], the IC50 in experiment [1] was found to be 0.998 µM; in experiment [2], 1790 nM.

For `CCc1nnc2n1CCN(C(=O)c1cccc(C(F)(F)F)c1Cl)[C@H]2c1ccccc1` [Example 87, (S)-(2-chloro-3-(trifluoromethyl)phenyl)(3-ethyl-8-phenyl-5,6-dihydro-[1,2,4]triazolo[4,3-a]pyrazin-7(8H)-yl)methanone], the IC50 in experiment [1] stood at 9.93 µM; in experiment [2], 3810 nM.

With `CC(C)c1nnc2n1CCN(C(=O)c1cccc(C(F)(F)F)c1Cl)[C@H]2c1ccccc1` [Example 89, (S)-(2-chloro-3-(trifluoromethyl)phenyl)(3-isopropyl-8-phenyl-5,6-dihydro-[1,2,4]triazolo[4,3-a]pyrazin-7(8H)-yl)methanone], the results for the IC50 in experiment [1] and in experiment [2] were more than 10 µM and 980 nM, respectively.

Regarding `Cc1nnc2n1CCN(C(=O)c1cccc(C(F)(F)F)c1Cl)[C@H]2c1ccccn1` [Example 92, (S)-(2-chloro-3-(trifluoromethyl)phenyl)(3-methyl-8-(pyridin-2-yl)-5,6-dihydro-[1,2,4]triazolo[4,3-a]pyrazin-7(8H)-yl)methanone], the half-inhibitory concentration (IC50) was found to be 17.7 µM in experiment [1] and 755 nM in experiment [2].

Turning to `O=C(c1cccc(C(F)(F)F)c1Cl)N1CCn2c(C3CCC3)nnc2[C@@H]1c1ccccc1` [Example 94, (S)-(2-chloro-3-(trifluoromethyl)phenyl)(3-cyclobutyl-8-phenyl-5,6-dihydro-[1,2,4]triazolo[4,3-a]pyrazin-7(8H)-yl)methanone], the values for the IC50 in experiment [1] and in experiment [2] were 2.16 µM and 434 nM, respectively.
